Laboratory results published in paper PMC8342319, “Predicting blood-to-plasma concentration ratios of drugs from chemical structures and volumes of distribution in humans” (Molecular Diversity, 2021).
Where two headings read alike, the source gives them in different places.

How the values were obtained:
[1] = human, cited from earlier work
plasma protein = settings: cited from earlier work; for fp_Human (free fraction in plasma): human, collected value, median if multiple values were reported, ref: Table S1
[2] = human
[3] = human, intravenous; median if multiple values were reported; ref numbers in Table S1; cited from earlier work
[4] = intravenous, median if multiple values were reported, ref numbers in Table S1
[5] = intravenous, median if multiple values reported, Reference of Table S1

Row | Compound | in vivo Vd_(L/kg)_Human [1, 4] | in vivo MRT_(hr)_Human [2] | in vivo CL_(L/hr/kg)_Human [3] | further results
1 | CC(=O)Nc1ccc(O)cc1 [Acetaminophen] | 1.000 L/kg |  |  | fp_Human (free fraction in plasma) (plasma protein): 0.710
2 | CN(C)Cc1nnc2n1-c1ccc(Cl)cc1C(c1ccccc1)=NC2 [Adinazolam] |  | 2.634 h | 0.372 L/h/kg | in vivo Vd_(L/kg)_Human ([1]; in vivo, iv): 0.980 L/kg
3 | OC(CCN1CCCCC1)(c1ccccc1)C1CC2C=CC1C2 (stereo not drawn) [Biperiden] | 9.100 L/kg | 12.639 h |  | 
4 | CC(C)NCC(O)COc1ccc(COCCOC(C)C)cc1 (stereo not drawn) [Bisoprolol] | 2.400 L/kg |  | 0.222 L/h/kg | fp_Human (free fraction in plasma) (plasma protein): 0.830
5 | CN1CCN(C2=Nc3cc(Cl)ccc3Nc3ccccc32)CC1 [Clozapine] | 1.600 L/kg | 10.667 h |  | 
6 | CNCCCN1c2ccccc2CCc2ccccc21 [Desipramine] | 15.000 L/kg | 22.727 h |  | 
7 | O=c1[nH]cnc2c1ncn2[C@H]1CC[C@@H](CO)O1 [Didanosine] |  | 1.197 h | 0.660 L/h/kg | 
8 | COc1cc2nc(N3CCN(C(=O)C4COc5ccccc5O4)CC3)nc(N)c2cc1OC (stereo not drawn) [Doxazosin] | 1.300 L/kg | 13.542 h |  | 
9 | CCN(CC)C(=O)/C(C#N)=C/c1cc(O)c(O)c([N+](=O)[O-])c1 [Entacapone] | 0.270 L/kg |  | 0.720 L/h/kg | 
10 | CC[C@H]1OC(=O)[C@H](C)[C@@H](O[C@H]2C[C@@](C)(OC)[C@@H](O)[C@H](C)O2)[C@H](C)[C@@H](O[C@@H]2O[C@H](C)C[C@H](N(C)C)[C@H]2O)[C@](C)(O)C[C@@H](C)C(=O)[C@H](C)[C@@H](O)[C@]1(C)O [Erythromycin] |  |  |  | fp_Human (free fraction in plasma) (plasma protein): 0.220
11 | CC(C)(C)NC(=O)[C@H]1CC[C@H]2[C@@H]3CC[C@H]4NC(=O)C=C[C@]4(C)[C@H]3CC[C@]12C [Finasteride] | 1.100 L/kg | 7.639 h |  | 
12 | O=C(NCC1CCCCN1)c1cc(OCC(F)(F)F)ccc1OCC(F)(F)F (stereo not drawn) [Flecainide] | 6.100 L/kg | 20.748 h |  | 
13 | CC1(C)O[C@@H]2C[C@H]3[C@@H]4C[C@H](F)C5=CC(=O)C=C[C@]5(C)[C@H]4[C@@H](O)C[C@]3(C)[C@]2(C(=O)CO)O1 [Flunisolide] |  | 2.500 h | 0.720 L/h/kg | 
14 | O=c1[nH]cc(F)c(=O)[nH]1 [Fluorouracil] |  |  |  | fp_Human (free fraction in plasma) (plasma protein): 0.770
15 | CC(C)n1c(/C=C/C(O)CC(O)CC(=O)O)c(-c2ccc(F)cc2)c2ccccc21 (stereo not drawn) [Fluvastatin] | 0.420 L/kg | 0.438 h |  | 
16 | O=C(O)P(=O)(O)O [Foscarnet] | 0.500 L/kg |  | 0.126 L/h/kg | 
17 | O=C(/C=C/c1c(C(=O)O)[nH]c2cc(Cl)cc(Cl)c12)Nc1ccccc1 [Gavestinel] |  |  |  | fp_Human (plasma protein): 0.002
18 | CCC1=C(C)CN(C(=O)NCCc2ccc(S(=O)(=O)NC(=O)N[C@H]3CC[C@H](C)CC3)cc2)C1=O [Glimepiride] | 0.190 L/kg |  | 0.034 L/h/kg | fp_Human (free fraction in plasma) (plasma protein): 0.028

Row | Compound | in vivo Vd_(L/kg)_Human [1, 4] | in vivo MRT_(hr)_Human [2] | in vivo CL_(L/hr/kg)_Human [3] | further results
19 | CC#CCC(C)[C@H](O)/C=C/[C@@H]1[C@H]2C/C(=C/CCCC(=O)O)C[C@H]2C[C@H]1O (stereo partly drawn) [Iloprost] | 0.385 L/kg |  | 0.960 L/h/kg | fp_Human (free fraction in plasma) (plasma protein): 0.400
20 | CCC(C)n1ncn(-c2ccc(N3CCN(c4ccc(OCC5COC(Cn6cncn6)(c6ccc(Cl)cc6Cl)O5)cc4)CC3)cc2)c1=O (stereo not drawn) [Itraconazole] | 7.400 L/kg |  | 0.306 L/h/kg | 
21 | CC(CCc1ccccc1)NCC(O)c1ccc(O)c(C(N)=O)c1 (stereo not drawn) [Labetalol] |  |  | 1.380 L/h/kg | fp_Human (free fraction in plasma) (plasma protein): 0.500
22 | Cc1c(OCC(F)(F)F)ccnc1C[S+]([O-])c1nc2ccccc2[nH]1 (stereo not drawn) [Lansoprazole] | 0.280 L/kg |  | 0.319 L/h/kg | 
23 | CC[C@H](C)C(=O)O[C@H]1C[C@@H](C)C=C2C=C[C@H](C)[C@H](CC[C@@H]3C[C@@H](O)CC(=O)O3)[C@H]21 [Lovastatin] | 0.870 L/kg |  | 0.432 L/h/kg | 
24 | CN(c1nc2ccccc2s1)C1CCN(C[C@H](O)COc2ccc(F)c(F)c2)CC1 [Lubeluzole] |  |  | 0.102 L/h/kg | fp_Human (free fraction in plasma) (plasma protein): 0.003
25 | Cc1ccnc2c1NC(=O)c1cccnc1N2C1CC1 [Nevirapine] | 1.300 L/kg |  | 0.018 L/h/kg | 
26 | COCCOC(=O)C1=C(C)NC(C)=C(C(=O)OC(C)C)C1c1cccc([N+](=O)[O-])c1 (stereo not drawn) [Nimodipine] | 1.000 L/kg | 1.111 h |  | 
27 | COc1ccc2[nH]c([S+]([O-])Cc3ncc(C)c(OC)c3C)nc2c1 (stereo not drawn) [Omeprazole] | 0.240 L/kg |  | 0.504 L/h/kg | 
28 | COc1ccc2c3c1O[C@H]1C(=O)CC[C@@]4(O)[C@@H](C2)N(C)CC[C@]314 [Oxycodone] |  |  | 0.366 L/h/kg | fp_Human (free fraction in plasma) (plasma protein): 0.550
29 | CCN1CCN(C(=O)N[C@@H](C(=O)N[C@@H]2C(=O)N3[C@@H]2SC(C)(C)[C@@H]3C(=O)O)c2ccccc2)C(=O)C1=O [Piperacillin] |  | 1.125 h |  | in vivo Vd_(L/kg)_Human [1, 5]: 0.270 L/kg
30 | CCN(CC)CCNC(=O)c1ccc(N)cc1 [Procainamide] |  |  |  | fp_Human (plasma protein): 0.840
31 | O=C(c1ccc(OCCN2CCCCC2)cc1)c1c(-c2ccc(O)cc2)sc2cc(O)ccc12 [Raloxifene] |  | 41.837 h |  | in vivo Vd_(L/kg)_Human [1, 5]: 36.900 L/kg
32 | Cc1nc2n(c(=O)c1CCN1CCC(c3noc4cc(F)ccc34)CC1)CCCC2 [Risperidone] |  |  |  | fp_Human (plasma protein; free fraction in human plasma, median if multiple values reported, Reference of Table S1): 0.100
33 | CCCc1nn(C)c2c(=O)[nH]c(-c3cc(S(=O)(=O)N4CCN(C)CC4)ccc3OCC)nc12 [Sildenafil] |  | 2.564 h |  | in vivo Vd_(L/kg)_Human [1, 5]: 1.400 L/kg
34 | CCCCNC(=O)NS(=O)(=O)c1ccc(C)cc1 [Tolbutamide] |  | 9.524 h |  | in vivo Vd_(L/kg)_Human [1, 5]: 0.120 L/kg
35 | CCN(C(C)=O)c1cccc(-c2ccnc3c(C#N)cnn23)c1 [Zaleplon] |  | 1.354 h |  | in vivo Vd_(L/kg)_Human ([1]; in vivo, iv): 1.300 L/kg
